Laboratory results taken from ChEMBL document CHEMBL2016478, “Lead optimisation of the N1 substituent of a novel series of indazole arylsulfonamides as CCR4 antagonists and identification of a candidate for clinical investigation” (Bioorg Med Chem Lett, 2012).
In brackets after ≈: the same amount, converted by molar mass.

Key:
[1] = Solubility of the compound by chemiluminescent nitrogen detection assay; assay type: physicochemical
[2] = molecular target: T1, C-C chemokine receptor type 4 (Homo sapiens, UniProt P51679); assay: Antagonist activity at human CCR4 expressed in CHO membranes assessed as inhibition of [35S]-GTPgammaS binding by scintillation counting; assay type: functional, cell membranes
T1 sequence (P51679 whole entry): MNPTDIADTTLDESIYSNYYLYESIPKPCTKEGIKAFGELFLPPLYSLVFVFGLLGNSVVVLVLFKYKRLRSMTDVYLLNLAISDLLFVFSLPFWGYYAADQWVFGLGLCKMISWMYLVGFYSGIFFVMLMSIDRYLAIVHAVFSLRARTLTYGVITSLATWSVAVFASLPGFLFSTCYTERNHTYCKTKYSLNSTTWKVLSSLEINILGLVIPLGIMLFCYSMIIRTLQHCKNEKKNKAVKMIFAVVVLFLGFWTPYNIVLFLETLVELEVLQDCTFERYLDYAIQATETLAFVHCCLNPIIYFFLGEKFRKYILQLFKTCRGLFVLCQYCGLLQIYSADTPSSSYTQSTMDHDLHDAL

[3] = molecular target: T1, C-C chemokine receptor type 4
Description: Displacement of [125I]TARC from human CCR4 expressed in CHO membranes by SPA

[4] = molecular target: T1, C-C chemokine receptor type 4; assay: Antagonist activity at human CCR4 in human whole blood assessed as inhibition of TARC-induced CD4+ CCR4+lymphocyte chemotaxis measuring F-actin content; assay type: functional, tissue-based; conditions: read-out: pA2 (converted)
[5] = Clearance in CD rat at 1 mg/kg, iv and 1 mg/kg, po; conditions: in vivo
[6] = Oral bioavailability in CD rat at 1 mg/kg; assay type: ADME, organism-based; conditions: in vivo
Canis familiaris = assay: Clearance in beagle dog at […], iv and 1.1 mg/kg, po relative to liver blood flow; assay type: ADME, organism-based, Canis lupus familiaris; conditions: in vivo
[7] = Volume of distribution at steady state in beagle dog at […], iv and 1.1 mg/kg, po; assay type: ADME, organism-based, Canis lupus familiaris; conditions: in vivo, read-out: Vdss
[8] = Oral bioavailability in beagle dog at 1.1 mg/kg; assay type: ADME, organism-based, Canis lupus familiaris; conditions: in vivo
Rattus norvegicus = assay: Clearance in CD rat at 1 mg/kg, iv and 1 mg/kg, po relative to liver blood flow; assay type: ADME, organism-based; conditions: in vivo
[9] = Clearance in beagle dog at […], iv and 1.1 mg/kg, po; assay type: ADME, organism-based, Canis lupus familiaris; conditions: in vivo
[10] = Permeability across MDCK cells; assay type: ADME, cell-based, Canis lupus familiaris; conditions: dog, read-out: permeability
[11] = Volume of distribution at steady state in CD rat at 1 mg/kg, iv and 1 mg/kg, po; assay type: ADME, organism-based; conditions: in vivo, read-out: Vdss
[12] = Volume of distribution at steady state in beagle dog at 0.54 mg/kg, iv and 1.1 mg/kg, po; assay type: ADME, organism-based, Canis lupus familiaris; conditions: in vivo, read-out: Vdss

solubility [1] [µg/mL] | IC50 [2] [µM] | Ki [3] [µM] | Kb [4] [µM] | SMILES | other results
74 (≈ 159 µM) | 0.324 | 0.251 |  | COc1cccc2c1c(NS(=O)(=O)c1ccc(Cl)s1)nn2Cc1ccccc1CO | 
7 (≈ 15.1 µM) |  | 0.251 |  | COc1ccc(Cn2nc(NS(=O)(=O)c3ccc(Cl)s3)c3c(OC)cccc32)cc1 | 
140 (≈ 294 µM) | 0.055 | 0.0398 | 1.58 | COc1cccc2c1c(NS(=O)(=O)c1ccc(Cl)s1)nn2Cc1cccc(C(N)=O)c1 | 
162 (≈ 295 µM) | 0.0148 | 0.01 | 0.631 | COc1cccc2c1c(NS(=O)(=O)c1ccc(Cl)s1)nn2Cc1cccc(CNC(=O)C(C)(C)O)c1 | clearance [5]: 15 mL/min/kg; bioavailability [6]: 85%; CLH (Canis familiaris): 29%; Vd [7]: 2.2 L/kg; bioavailability [8]: 97%; CLH (Rattus norvegicus): 18%; clearance [9]: 9 mL/min/kg; Papp [10]: 13.2 ×10⁻⁶ cm/s; Vd [11]: 1.9 L/kg
124 (≈ 246 µM) |  |  |  | COc1cccc2c1c(NS(=O)(=O)c1ccc(Cl)s1)nn2Cc1cccc(CNC(C)=O)c1 | bioavailability [6]: 100%; Vd [12]: 3.2 L/kg; bioavailability [8]: 49%; Papp [10]: 25.4 ×10⁻⁶ cm/s; Vd [11]: 0.57 L/kg
12 (≈ 25.9 µM) |  | 0.158 |  | COc1ccccc1Cn1nc(NS(=O)(=O)c2ccc(Cl)s2)c2c(OC)cccc21 | 
46 (≈ 93.1 µM) | 0.0229 | 0.02 | 2.51 | COc1ccc(Cn2nc(NS(=O)(=O)c3ccc(Cl)s3)c3c(OC)cccc32)cc1OC | 
17 (≈ 36.7 µM) | 0.0912 | 0.1 | 1 | COc1cccc2c1c(NS(=O)(=O)c1ccc(Cl)s1)nn2Cc1cccc(CN)c1 | 
146 (≈ 273 µM) | 0.0126 | 0.00794 | 0.631 | COc1cccc2c1c(NS(=O)(=O)c1ccc(Cl)s1)nn2Cc1cccc(CNC(=O)C(C)O)c1 (centres undefined) | 
151 (≈ 291 µM) | 0.129 |  |  | COc1cccc2c1c(NS(=O)(=O)c1ccc(Cl)s1)nn2Cc1cccc(CN(C)C(C)=O)c1 | 
104 (≈ 206 µM) |  | 0.158 |  | COc1cccc2c1c(NS(=O)(=O)c1ccc(Cl)s1)nn2Cc1ccc(CNC(C)=O)cc1 | 
123 (≈ 265 µM) | 0.0479 | 0.0501 |  | COc1cccc2c1c(NS(=O)(=O)c1ccc(Cl)s1)nn2Cc1ccc(CO)cc1 | 
12 (≈ 25.9 µM) | 0.158 | 0.126 |  | COc1cccc(Cn2nc(NS(=O)(=O)c3ccc(Cl)s3)c3c(OC)cccc32)c1 | 
1 (≈ 2.3 µM) | 0.389 | 0.251 | 6.31 | COc1cccc2c1c(NS(=O)(=O)c1ccc(Cl)s1)nn2Cc1ccccc1 | 
127 (≈ 274 µM) | 0.0324 | 0.0398 | 6.31 | COc1cccc2c1c(NS(=O)(=O)c1ccc(Cl)s1)nn2Cc1cccc(CO)c1 | 
167 (≈ 340 µM) | 0.0794 | 0.316 |  | CNC(=O)c1cccc(Cn2nc(NS(=O)(=O)c3ccc(Cl)s3)c3c(OC)cccc32)c1 | 
170 (≈ 308 µM) |  |  |  | COc1ccc(COc2nc(Br)cnc2NS(=O)(=O)c2ccc(C)cc2)cc1OCCN(C)C | 
167 (≈ 321 µM) | 0.0275 | 0.0158 | 2 | COc1cccc2c1c(NS(=O)(=O)c1ccc(Cl)s1)nn2Cc1cccc(CNC(=O)CO)c1 | 
160 (≈ 317 µM) |  |  |  | COc1cccc2c1c(NS(=O)(=O)c1ccc(Cl)s1)nn2Cc1cccc(C(=O)N(C)C)c1 | 
